Target: T1, DWM-GLYI (mitochondrial glyoxalase I)
T1 construct: native activity in Triton X-100-lysed purified mitochondria; isoform not identified
Assay: spectrophotometric GLYI activity assay ([…] nm) in lysed mitochondria, inhibition kinetics
Type: biochemical, Triticum turgidum subsp. durum

SMILES: COc1cc(/C=C/C(=O)CC(=O)/C=C/c2ccc(O)c(OC)c2)ccc1O [curcumin]
- Ki: 20 ± 3.5 µM

SMILES: O=c1c(O)c(-c2ccc(O)c(O)c2)oc2cc(O)cc(O)c12 [quercetin]
- Ki: 55 ± 7.5 µM
